{"source": "patent US12383539B2", "about": "(Cavion, Inc., priority 2018, dated 2025)", "format_in_all_cases": "in vivo, human", "key": {"[1]": {"test_system": "patients with essential tremor", "test": "T-CALM: Patient Global Impression of Change (PGIC)", "excerpt": "Treatment success as measured by PGIC was summarized using descriptive statistics.\nThe Patient Global Impression of Change (PGIC) will quantify a patient's impression of improvement or decline over time with respect to ET treatment (see, e.g., Guy, Assessment Manual for Psychopharmacology. Rockville, MD: Department of Health, Education, and Welfare Public Health Service Alcohol, Drug Abuse, and Mental Health Administration, 1976). The patient will use the PGIC scale to assess current health status versus initiation of treatment and calculate the difference."}, "[2]": {"test_system": "patients with essential tremor", "test": "PK/PD: Cmin exposure of CX-8998 vs change in TETRAS-PS (Hill equation)", "conditions": "steady state", "description": "Pharmacodynamic variables (Response) evaluated included change from baseline in TETRAS performance subscale, TETRAS activities of daily living, TETRAS total score."}, "[3]": {"test_system": "patients with essential tremor", "test": "T-CALM: Clinical Global Impression of Improvement (CGI-I)", "excerpt": "The Clinical Global Impressions Scale (CGI) was developed for use in NIMH-sponsored clinical trials to provide a brief, stand-alone assessment of the clinician's view of a patient's global functioning before and after initiating a study medication (Guy (ed.), ECDEU Assessment Manual for Psychopharmacology. Rockville, MD: US Department of Health, Education, and Welfare Public Health Service Alcohol, Drug Abuse, and Mental Health Administration; 1976). The CGI is a summary measure that takes into account all available information, including knowledge of the patient's history, psychosocial circumstances, symptoms, behavior, and the impact of the symptoms on the patient's ability to function. The CGI has two forms—the CGI-Severity, which rates illness severity at baseline, and the CGI-Improvement, which rates change from baseline.\nThe CGI-I consists of a single 7-point rating of total improvement or change from baseline CGI-S, regardless of whether or not the change is due entirely to drug treatment.\nTreatment success as measured by CGI-I was summarized using descriptive statistics.\nThe Clinical Global Impressions Scale (CGI) generates a clinician's perception of a patient's functioning prior to and after study medication (see, e.g., Guy, Assessment Manual for Psychopharmacology. Rockville, MD: Department of Health, Education, and Welfare Public Health Service Alcohol, Drug Abuse, and Mental Health Administration, 1976). The CGI overall score considers patient history, psychosocial situations, symptoms and behavior with respect to the ability to function. The CGI-Improvement (CGI-I) will involve a single 7-point rating of total improvement or change from baseline CGI-Severity (CGI-S)."}}, "data": [{"compound": "CC(C)c1ccc(CC(=O)N[C@H](C)c2ccc(OCC(F)(F)F)cn2)cc1", "note": "[CX-8998]", "values": [{"measurement": "PGIC score 0-no change: subjects, number (%)", "setting": "[1]; Day 28", "result": "14 (36%)"}, {"measurement": "PGIC score 1-minimally improved: subjects, number (%)", "setting": "[1]; Day 28", "result": "10 (26%)"}, {"measurement": "PGIC score 2-much improved: subjects, number (%)", "setting": "[1]; Day 28", "result": "7 (18%)"}, {"measurement": "PGIC score 3-very much improved: subjects, number (%)", "setting": "[1]; Day 28", "result": "3 (8%)"}, {"measurement": "PGIC score (rescaled −3 to 3), Mean (SD)", "setting": "[1]; Day 28", "result": "1 (1.3)"}, {"measurement": "PGIC score (rescaled −3 to 3), Median (minimum, maximum)", "setting": "[1]; Day 28", "result": "1 (−3, 3)"}, {"measurement": "PGIC score −1-minimally worse: subjects, number (%)", "setting": "[1]; Day 28", "result": "1 (3%)"}, {"measurement": "PGIC score −2-much worse: subjects, number (%)", "setting": "[1]; Day 28", "result": "1 (3%)"}, {"measurement": "PGIC score −3-very much worse: subjects, number (%)", "setting": "[1]; Day 28", "result": "1 (3%)"}, {"measurement": "PGIC: Improved, number of subjects", "setting": "[1]; Day 28, total 37", "result": 20}, {"measurement": "PGIC: No Change, number of subjects", "setting": "[1]; Day 28, total 37", "result": 14}, {"measurement": "PGIC: Worsened, number of subjects", "setting": "[1]; Day 28, total 37", "result": 3}, {"measurement": "PGIC score, LS mean (SE)", "setting": "[1]; Day 28, ANCOVA", "result": "0.8 (0.19)"}, {"measurement": "PGIC score, LS mean difference from placebo (95% CI)", "setting": "[1]; Day 28, ANCOVA", "result": "0.4 (−0.1, 0.9)"}, {"measurement": "PGIC category 0 No change, number (%) of patients", "setting": "[1]; Day 28, N = 39", "result": "14 (36%)"}, {"measurement": "PGIC category 1 Minimally improved, number (%) of patients", "setting": "[1]; Day 28, N = 39", "result": "10 (26%)"}, {"measurement": "PGIC category 2 Much improved, number (%) of patients", "setting": "[1]; Day 28, N = 39", "result": "7 (18%)"}, {"measurement": "PGIC category 3 Very much improved, number (%) of patients", "setting": "[1]; Day 28, N = 39", "result": "3 (8%)"}, {"measurement": "PGIC category −1 Minimally worse, number (%) of patients", "setting": "[1]; Day 28, N = 39", "result": "1 (3%)"}, {"measurement": "PGIC category −2 Much worse, number (%) of patients", "setting": "[1]; Day 28, N = 39", "result": "1 (3%)"}, {"measurement": "PGIC category −3 Very much worse, number (%) of patients", "setting": "[1]; Day 28, N = 39", "result": "1 (3%)"}, {"measurement": "Emax, change from baseline in TETRAS-PS (Hill equation)", "setting": "[2]", "result": "approximately −4.1"}, {"measurement": "CGI-I score 0-no change: subjects, number (%)", "setting": "[3]; Day 15", "result": "14 (36%)"}, {"measurement": "CGI-I score 1-minimally improved: subjects, number (%)", "setting": "[3]; Day 15", "result": "19 (49%)"}, {"measurement": "CGI-I score 2-much improved: subjects, number (%)", "setting": "[3]; Day 15", "result": "6 (15%)"}, {"measurement": "CGI-I score 3-very much improved: subjects, number (%)", "setting": "[3]; Day 15", "result": 0}, {"measurement": "CGI-I score −1-minimally worse: subjects, number (%)", "setting": "[3]; Day 15", "result": 0}, {"measurement": "CGI-I score −2-much worse: subjects, number (%)", "setting": "[3]; Day 15", "result": 0}, {"measurement": "CGI-I score −3-very much worse: subjects, number (%)", "setting": "[3]; Day 15", "result": 0}, {"measurement": "responders: improvement by CGI-I, %", "setting": "[3]; Day 15", "result": "(64.1%)"}, {"measurement": "CGI-I category 0 No change, number (%) of patients", "setting": "[3]; Day 15, N = 39", "result": "14 (36%)"}, {"measurement": "CGI-I category 1 Minimally improved, number (%) of patients", "setting": "[3]; Day 15, N = 39", "result": "19 (49%)"}, {"measurement": "CGI-I category 2 Much improved, number (%) of patients", "setting": "[3]; Day 15, N = 39", "result": "6 (15%)"}, {"measurement": "CGI-I category 3 Very much improved, number (%) of patients", "setting": "[3]; Day 15, N = 39", "result": 0}, {"measurement": "CGI-I category −1 Minimally worse, number (%) of patients", "setting": "[3]; Day 15, N = 39", "result": 0}, {"measurement": "CGI-I category −2 Much worse, number (%) of patients", "setting": "[3]; Day 15, N = 39", "result": 0}, {"measurement": "CGI-I category −3 Very much worse, number (%) of patients", "setting": "[3]; Day 15, N = 39", "result": 0}, {"measurement": "CGI-I score 0-no change: subjects, number (%)", "setting": "[3]; Day 28", "result": "13 (33%)"}, {"measurement": "CGI-I score 1-minimally improved: subjects, number (%)", "setting": "[3]; Day 28", "result": "15 (38%)"}, {"measurement": "CGI-I score 2-much improved: subjects, number (%)", "setting": "[3]; Day 28", "result": "9 (23%)"}, {"measurement": "CGI-I score 3-very much improved: subjects, number (%)", "setting": "[3]; Day 28", "result": 0}, {"measurement": "CGI-I score (rescaled −3 to 3), Mean (SD)", "setting": "[3]; Day 28", "result": "1 (0.8)"}, {"measurement": "CGI-I score (rescaled −3 to 3), Median (minimum, maximum)", "setting": "[3]; Day 28", "result": "1 (0, 2)"}, {"measurement": "CGI-I score −1-minimally worse: subjects, number (%)", "setting": "[3]; Day 28", "result": 0}, {"measurement": "CGI-I score −2-much worse: subjects, number (%)", "setting": "[3]; Day 28", "result": 0}, {"measurement": "CGI-I score −3-very much worse: subjects, number (%)", "setting": "[3]; Day 28", "result": 0}, {"measurement": "responders: improvement by CGI-I, %", "setting": "[3]; Day 28", "result": "(64.9%)"}, {"measurement": "CGI-I: No Change, number of subjects", "setting": "[3]; Day 28, total 37", "result": 13}, {"measurement": "CGI-I: Worsened, number of subjects", "setting": "[3]; Day 28, total 37", "result": 0}, {"measurement": "CGI-I score, LS mean (SE)", "setting": "[3]; Day 28, ANCOVA", "result": "1.0 (0.13)"}, {"measurement": "CGI-I score, LS mean difference from placebo (95% CI)", "setting": "[3]; Day 28, ANCOVA", "result": "0.6 (0.3, 0.9)"}, {"measurement": "CGI-I category 0 No change, number (%) of patients", "setting": "[3]; Day 28, N = 39", "result": "13 (33%)"}, {"measurement": "CGI-I category 1 Minimally improved, number (%) of patients", "setting": "[3]; Day 28, N = 39", "result": "15 (38%)"}, {"measurement": "CGI-I category 2 Much improved, number (%) of patients", "setting": "[3]; Day 28, N = 39", "result": "9 (23%)"}, {"measurement": "CGI-I category 3 Very much improved, number (%) of patients", "setting": "[3]; Day 28, N = 39", "result": 0}, {"measurement": "CGI-I category −1 Minimally worse, number (%) of patients", "setting": "[3]; Day 28, N = 39", "result": 0}, {"measurement": "CGI-I category −2 Much worse, number (%) of patients", "setting": "[3]; Day 28, N = 39", "result": 0}, {"measurement": "CGI-I category −3 Very much worse, number (%) of patients", "setting": "[3]; Day 28, N = 39", "result": 0}]}]}
